Data on 65 sequences can be found in the supplement of paper PMC11208160.
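Further: IS621 bridge recombinase in Escherichia coli cells against a fixed T5 target plasmid.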

This data set in a line: recombinant UMI read abundance after kanamycin selection (control-corrected) (log10(CPM+1)); higher = more efficient recombination; extreme values may be limits of the assay; sequences stand for … in AGTGCAGAGAAAATCGGCCAGTTTTCTCTGCCTGCAGTCCGCATGCCGTGGGACCCCTTGGGTTCTAACCTGTTGCCTAGATTTATGCAGCGGACTGCCTTTCTCCCAAAGTGATAAACCGG…AGGTTGGTTTCACT; site = the 11-nt donor. The method, then: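 Pooled E. coli donor-specificity screen for the IS621 bridge recombinase. Each library member carries a reprogrammed 11-nt donor and a full-length LE bridge RNA expressed in cis from the natural promoter, with a paired donor-binding loop (8-nt LDG + 4-nt RDG) and a target-binding loop fixed to T5. It is co-electroporated with a T5 target plasmid; recombinase is induced with 0.07 mM IPTG and recombinants are selected on kanamycin. UMIs are counted as CPM, averaged over two biological replicates and corrected by the unselected control. Molecule = full bridge RNA written as DNA, built from the T5 scaffold: LDG = donor specificity nt 1-8, RDG = reverse complement of nt 8-11.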
As to “AAGCACGCATGGACCGGTTTTCCCGGTAATCCGTATTTGGC (site AAGCACGCTCC)”, the “recombinant UMI read abundance (log10)” value turned out to be 0.0935.

Take “AAGCACGCATGGACCGGTTTTCCCGGTAATCCGTATTTGGC (site AAGCACGCTGC)”: the “recombinant UMI read abundance (log10)” value stood at 2.71.

As for “AAGCACGCATGGACCGGTTTTCCCGGTAATCCGTATTTGGC (site AAGCACGCTTC)”, the “recombinant UMI read abundance (log10)” value was found to be 0.476.

Take “AAGCACGCATGGACCGGTTTTCCCGGTAATCCGTATTTGGT (site AAGCACGCTAC)”: the “recombinant UMI read abundance (log10)” value was found to be 1.48.

Take “AAGCACGCATGGACCGGTTTTCCCGGTAATCCGTATTTGGT (site AAGCACGCTCC)”: the “recombinant UMI read abundance (log10)” value turned out to be 0.315.

For “AAGCACGCATGGACCGGTTTTCCCGGTAATCCGTATTTGGT (site AAGCACGCTGC)”, the “recombinant UMI read abundance (log10)” value came out at 1.24.

Take “AAGCACGCATGGACCGGTTTTCCCGGTAATCCGTATTTGGT (site AAGCACGCTTC)”: the “recombinant UMI read abundance (log10)” value amounted to 0.427.

For the sequence “AAGCATACATGGACCGGTTTTCCCGGTAATCCGTATTTGAC (site AAGCATACTGT)”, the “recombinant UMI read abundance (log10)” value was determined as 2.88.

For the sequence “AAGCCCGCATGGACCGGTTTTCCCGGTAATCCGTATTTGGG (site AAGCACGCTCC)”, the “recombinant UMI read abundance (log10)” value was determined as 0.00486.

Consider “AAGCCCGCATGGACCGGTTTTCCCGGTAATCCGTATTTGGG (site AAGCCCGCTCC)”, for which the “recombinant UMI read abundance (log10)” value was 0.0203.

Regarding “AAGCCCGCATGGACCGGTTTTCCCGGTAATCCGTATTTGGG (site AAGCGCGCTCC)”, the “recombinant UMI read abundance (log10)” value worked out at 0.0392.

Take “AAGCCCGCATGGACCGGTTTTCCCGGTAATCCGTATTTGGG (site AAGCTCGCTCC)”: the “recombinant UMI read abundance (log10)” value was 0.0406.

Consider “AAGCCGGCATGGACCGGTTTTCCCGGTAATCCGTATTTGGC (site AAGCCGGCTGC)”, for which the “recombinant UMI read abundance (log10)” value is 0.

Turning to “AAGCGCTCATGGACCGGTTTTCCCGGTAATCCGTATTTGCG (site AAGCGCTCTCG)”, the “recombinant UMI read abundance (log10)” value was 2.26.

“AAGGAAACATGGACCGGTTTTCCCGGTAATCCGTATTTGCA (site AAGGAAACTTG)”: the “recombinant UMI read abundance (log10)” value turned out to be 2.06.

As to “AAGGAATCATGGACCGGTTTTCCCGGTAATCCGTATTTGCG (site AAGGAATCTCG)”, the “recombinant UMI read abundance (log10)” value came out at 3.14.

For “AAGGAATCATGGACCGGTTTTCCCGGTAATCCGTATTTGCG (site CAGGAATCTCG)”, the “recombinant UMI read abundance (log10)” value came out at 2.38.

With “AAGGAATCATGGACCGGTTTTCCCGGTAATCCGTATTTGCG (site GAGGAATCTCG)”, the “recombinant UMI read abundance (log10)” value is 2.74.

Take “AAGGAATCATGGACCGGTTTTCCCGGTAATCCGTATTTGCG (site TAGGAATCTCG)”: the “recombinant UMI read abundance (log10)” value came to 3.08.

On to “AAGGACTCATGGACCGGTTTTCCCGGTAATCCGTATTTGTT (site AAGGACTCTAA)”, for which the “recombinant UMI read abundance (log10)” value was 2.9.

As for “AAGGAGCCATGGACCGGTTTTCCCGGTAATCCGTATTTGGG (site AAGGAGCCTCC)”, the “recombinant UMI read abundance (log10)” value came to 0.00843.

Turning to “AAGGATGCATGGACCGGTTTTCCCGGTAATCCGTATTTGTG (site AAGGATGCTCA)”, the “recombinant UMI read abundance (log10)” value was 2.3.

“AAGGCGACATGGACCGGTTTTCCCGGTAATCCGTATTTGGA (site AAGGCGACTTC)”: the “recombinant UMI read abundance (log10)” value was found to be 0.0223.

On to “AAGGGCCCATGGACCGGTTTTCCCGGTAATCCGTATTTGGC (site AAGGGCCCTGC)”, for which the “recombinant UMI read abundance (log10)” value was 0.674.

Turning to “AAGGGGTCATGGACCGGTTTTCCCGGTAATCCGTATTTGAT (site AAGGGGTCTAT)”, the “recombinant UMI read abundance (log10)” value amounted to 2.94.

As for “AAGGGTTCATGGACCGGTTTTCCCGGTAATCCGTATTTGTC (site AAGGGTTCTGA)”, the “recombinant UMI read abundance (log10)” value is 2.5.

“AAGGTTGCATGGACCGGTTTTCCCGGTAATCCGTATTTGCA (site AAGGTTGCTTG)”: the “recombinant UMI read abundance (log10)” value came out at 2.22.

In the case of “AAGTAACCATGGACCGGTTTTCCCGGTAATCCGTATTTGGA (site AAGTAACCTTC)”, the “recombinant UMI read abundance (log10)” value worked out at 0.105.

In the case of “AAGTACGCATGGACCGGTTTTCCCGGTAATCCGTATTTGGG (site AAGAACGCTCC)”, the “recombinant UMI read abundance (log10)” value turned out to be 0.14.

Turning to “AAGTACGCATGGACCGGTTTTCCCGGTAATCCGTATTTGGG (site AAGCACGCTCC)”, the “recombinant UMI read abundance (log10)” value amounted to 0.0289.

With “AAGTACGCATGGACCGGTTTTCCCGGTAATCCGTATTTGGG (site AAGGACGCTCC)”, the “recombinant UMI read abundance (log10)” value came to 0.492.

Turning to “AAGTACGCATGGACCGGTTTTCCCGGTAATCCGTATTTGGG (site AAGTACGCTCC)”, the “recombinant UMI read abundance (log10)” value was determined as 0.423.

As for “AAGTCCACATGGACCGGTTTTCCCGGTAATCCGTATTTGCT (site AAGTCCACTAG)”, the “recombinant UMI read abundance (log10)” value turned out to be 1.56.

In the case of “AAGTTACCATGGACCGGTTTTCCCGGTAATCCGTATTTGAC (site AAGTTACCTGT)”, the “recombinant UMI read abundance (log10)” value turned out to be 0.

“AATAGCCCATGGACCGGTTTTCCCGGTAATCCGTATTTGAC (site AATAGCCCTGT)”: the “recombinant UMI read abundance (log10)” value was 1.07.

In the case of “AATAGTGCATGGACCGGTTTTCCCGGTAATCCGTATTTGAG (site AATAGTGCTCT)”, the “recombinant UMI read abundance (log10)” value is 1.4.

On to “AATATAGCATGGACCGGTTTTCCCGGTAATCCGTATTTGCC (site AATATAGCTGG)”, for which the “recombinant UMI read abundance (log10)” value came out at 1.53.

Consider “AATATGACATGGACCGGTTTTCCCGGTAATCCGTATTTGTG (site AATATGACTCA)”, for which the “recombinant UMI read abundance (log10)” value was found to be 0.774.

In the case of “AATCACCCATGGACCGGTTTTCCCGGTAATCCGTATTTGCT (site AATCACCCTAG)”, the “recombinant UMI read abundance (log10)” value amounted to 0.532.

Consider “AATCATACATGGACCGGTTTTCCCGGTAATCCGTATTTGGT (site AATCATACTAC)”, for which the “recombinant UMI read abundance (log10)” value amounted to 0.556.

For “AATCTCACATGGACCGGTTTTCCCGGTAATCCGTATTTGCT (site AATCTCACTAG)”, the “recombinant UMI read abundance (log10)” value is 1.64.

Consider “AATCTCCCATGGACCGGTTTTCCCGGTAATCCGTATTTGCT (site AATCTCCCTAG)”, for which the “recombinant UMI read abundance (log10)” value was 0.736.

On to “AATGAGTCATGGACCGGTTTTCCCGGTAATCCGTATTTGAC (site AATGAGTCTGT)”, for which the “recombinant UMI read abundance (log10)” value was found to be 3.25.

For the sequence “AATGAGTCATGGACCGGTTTTCCCGGTAATCCGTATTTGAC (site AATGCGTCTGT)”, the “recombinant UMI read abundance (log10)” value is 0.

For “AATGAGTCATGGACCGGTTTTCCCGGTAATCCGTATTTGAC (site AATGGGTCTGT)”, the “recombinant UMI read abundance (log10)” value came to 0.

Take “AATGAGTCATGGACCGGTTTTCCCGGTAATCCGTATTTGAC (site AATGTGTCTGT)”: the “recombinant UMI read abundance (log10)” value amounted to 0.822.

As to “AATGAGTCATGGACCGGTTTTCCCGGTAATCCGTATTTGAT (site AATGAGTCTAT)”, the “recombinant UMI read abundance (log10)” value is 2.52.

As to “AATGATCCATGGACCGGTTTTCCCGGTAATCCGTATTTGCG (site AATGATCCTCG)”, the “recombinant UMI read abundance (log10)” value was determined as 0.677.

On to “AATGGCCCATGGACCGGTTTTCCCGGTAATCCGTATTTGTA (site AATGGCCCTTA)”, for which the “recombinant UMI read abundance (log10)” value came out at 0.0128.

Turning to “AATGTAACATGGACCGGTTTTCCCGGTAATCCGTATTTGAT (site AATGTAACTAA)”, the “recombinant UMI read abundance (log10)” value is 0.00583.

Consider “AATGTAACATGGACCGGTTTTCCCGGTAATCCGTATTTGAT (site AATGTAACTAC)”, for which the “recombinant UMI read abundance (log10)” value is 0.00741.

In the case of “AATGTAACATGGACCGGTTTTCCCGGTAATCCGTATTTGAT (site AATGTAACTAG)”, the “recombinant UMI read abundance (log10)” value is 0.00602.

On to “AATGTAACATGGACCGGTTTTCCCGGTAATCCGTATTTGAT (site AATGTAACTAT)”, for which the “recombinant UMI read abundance (log10)” value amounted to 2.15.

Consider “AATGTAACATGGACCGGTTTTCCCGGTAATCCGTATTTGCA (site AATGTAACTAG)”, for which the “recombinant UMI read abundance (log10)” value turned out to be 0.

“AATGTAACATGGACCGGTTTTCCCGGTAATCCGTATTTGCA (site AATGTAACTCG)”: the “recombinant UMI read abundance (log10)” value was 0.0207.

Turning to “AATGTAACATGGACCGGTTTTCCCGGTAATCCGTATTTGCA (site AATGTAACTGG)”, the “recombinant UMI read abundance (log10)” value turned out to be 0.

Regarding “AATGTAACATGGACCGGTTTTCCCGGTAATCCGTATTTGCA (site AATGTAACTTG)”, the “recombinant UMI read abundance (log10)” value was found to be 1.78.

For “AATGTAACATGGACCGGTTTTCCCGGTAATCCGTATTTGCC (site AATGTAACTAG)”, the “recombinant UMI read abundance (log10)” value was found to be 0.

Consider “AATGTAACATGGACCGGTTTTCCCGGTAATCCGTATTTGCC (site AATGTAACTCG)”, for which the “recombinant UMI read abundance (log10)” value was 0.

With “AATGTAACATGGACCGGTTTTCCCGGTAATCCGTATTTGCC (site AATGTAACTGG)”, the “recombinant UMI read abundance (log10)” value was 2.15.

Regarding “AATGTAACATGGACCGGTTTTCCCGGTAATCCGTATTTGCC (site AATGTAACTTG)”, the “recombinant UMI read abundance (log10)” value was 1.34.

“AATGTAACATGGACCGGTTTTCCCGGTAATCCGTATTTGGT (site AATGTAACTAA)”: the “recombinant UMI read abundance (log10)” value was found to be 0.557.

With “AATGTAACATGGACCGGTTTTCCCGGTAATCCGTATTTGGT (site AATGTAACTAC)”, the “recombinant UMI read abundance (log10)” value came out at 1.36.

As to “AATGTAACATGGACCGGTTTTCCCGGTAATCCGTATTTGGT (site AATGTAACTAG)”, the “recombinant UMI read abundance (log10)” value was 0.

As to “AATGTAACATGGACCGGTTTTCCCGGTAATCCGTATTTGGT (site AATGTAACTAT)”, the “recombinant UMI read abundance (log10)” value was determined as 0.468.
